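In this assay, cells in 96-well plates receive the compound at five concentrations for 48 hours. Endpoints are linearly interpolated between the surrounding concentrations. GI50: concentration for 50% inhibition of growth. TGI is the concentration that stops growth completely.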
What was measured:
Experiment in all cases: DTP human tumour cell line panel, 48 h
K-562 leukemia = test system: K-562 leukemia
EKVX NSCLC = test system: EKVX NSCLC
HCT-116 colon = test system: HCT-116 colon
NCI-H522 lung = test system: NCI-H522 lung
CAKI-1 renal = test system: CAKI-1 renal
RPMI-8226 leukemia = test system: RPMI-8226 leukemia
OVCAR-4 ovarian = test system: OVCAR-4 ovarian
NCI-H226 lung = test system: NCI-H226 lung
T-47D breast = test system: T-47D breast

NC12CC3CC(C1)CC(C(=O)O)(C3)C2
TGI (K-562 leukemia): > 100 µM
TGI (EKVX NSCLC): > 100 µM
TGI (HCT-116 colon): > 100 µM
TGI (NCI-H522 lung): > 100 µM
TGI (CAKI-1 renal): > 100 µM
TGI (RPMI-8226 leukemia): > 100 µM
TGI (OVCAR-4 ovarian): > 100 µM

O=[N+]([O-])c1ccc(C=NC2CCCCC2)cc1
TGI (K-562 leukemia): > 100 µM
TGI (NCI-H226 lung): > 100 µM
TGI (EKVX NSCLC): > 100 µM
TGI (HCT-116 colon): > 100 µM
TGI (CAKI-1 renal): > 100 µM
TGI (OVCAR-4 ovarian): > 100 µM

CCCC1N2CCCCC2[C@@H]2c3[nH]c4ccccc4c3CCN12 (stereo partly specified)
TGI (K-562 leukemia): > 100 µM
TGI (EKVX NSCLC): > 100 µM
TGI (HCT-116 colon): > 100 µM
TGI (CAKI-1 renal): > 100 µM
TGI (RPMI-8226 leukemia): > 100 µM
TGI (OVCAR-4 ovarian): > 100 µM

CN(C)CCNC(=O)c1cccc2ccc(-c3ccncc3)nc12
TGI (K-562 leukemia): 9.56 µM
TGI (EKVX NSCLC): 13.4 µM
TGI (HCT-116 colon): 4.71 µM
TGI (CAKI-1 renal): 5.21 µM
TGI (OVCAR-4 ovarian): 15 µM

Cc1cc(-c2cnn3c(NCC4CC(C)(O)C4)cc(Oc4cccnc4)nc23)ccc1C(=O)NC1CC1 (stereo unspecified)
GI50 (K-562 leukemia): > 100 µM
TGI (K-562 leukemia): > 100 µM
GI50 (NCI-H226 lung): > 100 µM
TGI (NCI-H226 lung): > 100 µM
GI50 (EKVX NSCLC): 3.76 µM
TGI (EKVX NSCLC): > 100 µM
GI50 (HCT-116 colon): 0.0858 µM
TGI (HCT-116 colon): > 100 µM
GI50 (NCI-H522 lung): 5.08 µM
TGI (NCI-H522 lung): > 100 µM
GI50 (CAKI-1 renal): 1.38 µM
TGI (CAKI-1 renal): > 100 µM

C=C(C[C@](O)(C(=O)/C=C/c1ccc(Cl)cc1)C(=O)OC)c1ccccc1
GI50 (K-562 leukemia): 2.12 µM
TGI (K-562 leukemia): 8.8 µM
GI50 (NCI-H226 lung): 3.48 µM
TGI (NCI-H226 lung): 16.3 µM
GI50 (EKVX NSCLC): 4.16 µM
TGI (EKVX NSCLC): 16.9 µM
GI50 (HCT-116 colon): 1.92 µM
TGI (HCT-116 colon): 3.96 µM
GI50 (NCI-H522 lung): 2.25 µM
TGI (NCI-H522 lung): 6.95 µM
GI50 (T-47D breast): 1.29 µM
TGI (T-47D breast): 3.65 µM
GI50 (CAKI-1 renal): 7 µM
TGI (CAKI-1 renal): 20.7 µM
GI50 (OVCAR-4 ovarian): 3.07 µM
TGI (OVCAR-4 ovarian): 15.6 µM

Cc1c(C(=O)C/C(=N/NC(=O)C[N+](C)(C)C)C(=O)Nc2ccc(Cl)cc2)[n+](=O)c2ccccc2n1O
TGI (K-562 leukemia): > 100 µM
TGI (NCI-H226 lung): > 100 µM
TGI (EKVX NSCLC): > 100 µM
TGI (HCT-116 colon): > 100 µM
TGI (NCI-H522 lung): > 100 µM
TGI (CAKI-1 renal): > 100 µM
TGI (RPMI-8226 leukemia): > 100 µM
TGI (OVCAR-4 ovarian): > 100 µM

COCCCNC(=O)C1C(=O)C(=O)N(CCCOC)C1=O (stereo unspecified)
TGI (K-562 leukemia): > 100 µM
TGI (NCI-H226 lung): > 100 µM
TGI (EKVX NSCLC): > 100 µM
TGI (HCT-116 colon): > 100 µM
TGI (NCI-H522 lung): > 100 µM
TGI (CAKI-1 renal): > 100 µM
TGI (RPMI-8226 leukemia): > 100 µM
TGI (OVCAR-4 ovarian): > 100 µM

O=C(O)C(CS)Nc1c2ccccc2nc2ccccc12 (stereo unspecified)
TGI (K-562 leukemia): > 100 µM
TGI (NCI-H226 lung): > 100 µM
TGI (EKVX NSCLC): > 100 µM
TGI (NCI-H522 lung): > 100 µM
TGI (CAKI-1 renal): > 100 µM
TGI (RPMI-8226 leukemia): > 100 µM
TGI (OVCAR-4 ovarian): 47.1 µM

O=C1c2ccccc2C(=O)N1CCc1ncc[nH]1
TGI (K-562 leukemia): > 100 µM
TGI (EKVX NSCLC): > 100 µM
TGI (HCT-116 colon): > 100 µM
TGI (NCI-H522 lung): > 100 µM
TGI (T-47D breast): > 100 µM
TGI (CAKI-1 renal): > 100 µM
TGI (RPMI-8226 leukemia): > 100 µM

C[C@@H]1OC(=O)N2CCCC(=C3SCCCS3)C12 (stereo partly specified)
TGI (K-562 leukemia): > 100 µM
TGI (NCI-H226 lung): > 100 µM
TGI (EKVX NSCLC): > 100 µM
TGI (HCT-116 colon): > 100 µM
TGI (NCI-H522 lung): > 100 µM
TGI (RPMI-8226 leukemia): > 100 µM
TGI (OVCAR-4 ovarian): > 100 µM

C/C(O)=C(\N=O)C(=O)Nc1ccc(Cl)cc1Cl
TGI (K-562 leukemia): > 100 µM
TGI (NCI-H226 lung): > 100 µM
TGI (EKVX NSCLC): > 100 µM
TGI (HCT-116 colon): > 100 µM
TGI (NCI-H522 lung): > 100 µM
TGI (CAKI-1 renal): > 100 µM
TGI (RPMI-8226 leukemia): > 100 µM
TGI (OVCAR-4 ovarian): > 100 µM

COc1ccc2c(c1)CCCN2c1c2ccccc2nc2ccccc12
GI50 (K-562 leukemia): 0.341 µM
TGI (K-562 leukemia): > 100 µM
GI50 (EKVX NSCLC): 0.932 µM
TGI (EKVX NSCLC): > 100 µM
GI50 (HCT-116 colon): 0.334 µM
TGI (HCT-116 colon): 14.3 µM
GI50 (NCI-H522 lung): 0.384 µM
TGI (NCI-H522 lung): 16.2 µM
GI50 (T-47D breast): 0.662 µM
TGI (T-47D breast): > 100 µM
GI50 (CAKI-1 renal): 0.383 µM
TGI (CAKI-1 renal): > 100 µM
GI50 (RPMI-8226 leukemia): 0.431 µM
TGI (RPMI-8226 leukemia): 4.98 µM
GI50 (OVCAR-4 ovarian): 0.812 µM
TGI (OVCAR-4 ovarian): > 100 µM

N#C/C(=C\c1ccc2ccccc2c1)c1ccccc1
TGI (NCI-H226 lung): > 100 µM
TGI (HCT-116 colon): > 100 µM
TGI (NCI-H522 lung): 29.6 µM
TGI (CAKI-1 renal): 50 µM
TGI (RPMI-8226 leukemia): > 100 µM
TGI (OVCAR-4 ovarian): 69.1 µM

COC1(OC)CC2OC1C1N=NN(C(=O)OC(C)(C)C)C21 (stereo unspecified)
TGI (K-562 leukemia): > 100 µM
TGI (NCI-H226 lung): > 100 µM
TGI (CAKI-1 renal): > 100 µM
TGI (RPMI-8226 leukemia): > 100 µM
TGI (OVCAR-4 ovarian): > 100 µM

O=c1cc(-c2ccccc2)oc2cc(OC/C(=N/O)c3ccccc3)ccc12
GI50 (K-562 leukemia): 36.5 µM
TGI (K-562 leukemia): > 50 µM
GI50 (NCI-H226 lung): 23.5 µM
TGI (NCI-H226 lung): > 50 µM
GI50 (EKVX NSCLC): 24.8 µM
TGI (EKVX NSCLC): > 50 µM
GI50 (NCI-H522 lung): 9.61 µM
TGI (NCI-H522 lung): > 50 µM
GI50 (T-47D breast): > 50 µM
TGI (T-47D breast): > 50 µM
GI50 (CAKI-1 renal): 12.8 µM
TGI (CAKI-1 renal): > 50 µM
GI50 (RPMI-8226 leukemia): 6.69 µM
TGI (RPMI-8226 leukemia): > 50 µM
GI50 (OVCAR-4 ovarian): 30.5 µM
TGI (OVCAR-4 ovarian): > 50 µM

CC(C)(C)c1cc(CCC(=O)Nc2ccc(Cl)cc2)nc(NC#N)n1
TGI (K-562 leukemia): > 100 µM
TGI (NCI-H226 lung): > 100 µM
TGI (EKVX NSCLC): > 100 µM
TGI (HCT-116 colon): > 100 µM
TGI (CAKI-1 renal): > 100 µM
TGI (OVCAR-4 ovarian): > 100 µM

Cc1ccc(-c2nc3nc(-c4ccccc4)nc(N4CCCNCC4)c3o2)cc1
GI50 (K-562 leukemia): 0.442 µM
TGI (K-562 leukemia): 1.86 µM
GI50 (NCI-H226 lung): 1.87 µM
TGI (NCI-H226 lung): 3.86 µM
GI50 (EKVX NSCLC): 1.75 µM
TGI (EKVX NSCLC): 3.29 µM
GI50 (HCT-116 colon): 1.31 µM
TGI (HCT-116 colon): 2.65 µM
GI50 (NCI-H522 lung): 1.73 µM
TGI (NCI-H522 lung): 3.39 µM
GI50 (T-47D breast): 1.73 µM
TGI (T-47D breast): 3.5 µM
GI50 (CAKI-1 renal): 1.73 µM
TGI (CAKI-1 renal): 3.22 µM
GI50 (OVCAR-4 ovarian): 1.59 µM
TGI (OVCAR-4 ovarian): 3.09 µM

COc1ccc(NC(=O)CC(=O)N/N=C/c2ccc(N(CCC#N)S(C)(=O)=O)cc2)cc1
TGI (K-562 leukemia): > 100 µM
TGI (NCI-H226 lung): > 100 µM
TGI (EKVX NSCLC): > 100 µM
TGI (HCT-116 colon): > 100 µM
TGI (NCI-H522 lung): > 100 µM
TGI (CAKI-1 renal): > 100 µM
TGI (RPMI-8226 leukemia): > 100 µM
TGI (OVCAR-4 ovarian): > 100 µM

CCCC(=O)OCC1OC(n2cnc3c(=S)nc[nH]c32)C(OC(=O)CCC)C1OC(=O)CCC (stereo unspecified)
GI50 (K-562 leukemia): 1.7 µM
TGI (K-562 leukemia): > 100 µM
GI50 (NCI-H226 lung): 5.77 µM
TGI (NCI-H226 lung): > 100 µM
GI50 (EKVX NSCLC): 35 µM
TGI (EKVX NSCLC): > 100 µM
GI50 (HCT-116 colon): 4 µM
TGI (HCT-116 colon): > 100 µM
GI50 (NCI-H522 lung): 4.62 µM
TGI (NCI-H522 lung): > 100 µM
GI50 (T-47D breast): 0.794 µM
TGI (T-47D breast): > 100 µM
GI50 (CAKI-1 renal): 2.51 µM
TGI (CAKI-1 renal): 23.5 µM
GI50 (OVCAR-4 ovarian): 0.802 µM
TGI (OVCAR-4 ovarian): > 100 µM

Nc1c(-c2ccc(Cl)cc2)[n+]([O-])c2ccccc2[n+]1[O-]
TGI (K-562 leukemia): > 100 µM
TGI (NCI-H226 lung): > 100 µM
TGI (EKVX NSCLC): > 100 µM
TGI (NCI-H522 lung): 85.6 µM
TGI (CAKI-1 renal): > 100 µM
TGI (RPMI-8226 leukemia): > 100 µM
TGI (OVCAR-4 ovarian): > 100 µM

N#CSC1CCCCNC1=O (stereo unspecified)
TGI (K-562 leukemia): 62.3 µM
TGI (NCI-H226 lung): 25.7 µM
TGI (EKVX NSCLC): 37.5 µM
TGI (HCT-116 colon): > 100 µM
TGI (NCI-H522 lung): 21.3 µM
TGI (T-47D breast): 52.5 µM
TGI (CAKI-1 renal): 31.8 µM
TGI (RPMI-8226 leukemia): 29.3 µM
